Experiments:
Type in all cases: cell-based, human
[1] = system: MCF7/FasR and MCF7/FasR/Bcl-xL cells; experiment: GSH quantification (GSH-Glo); details: complex 4a all doses with 458 nm irradiation; TNFα 100 ng/mL; 72 h
Description: (§1) ATP and glutathione (GSH) contents were measured with the Promega CellTiter-Glo (Cat#G7570) and GSH-Glo (cat#6911) luminescent assays, respectively, according to the manufacturer’s recommendations.
(§2) Figure 13 Evaluation of apoptotic biomarkers. MCF7/FasR and MCF7/FasR/Bcl-xL cells were irradiated at 458 nm in presence of the indicated concentration of complex 4a or treated with […] TNFα for 72 h. (A) Cytosolic extracts from MCF7/FasR and MCF7/FasR/Bcl-xL cells were separated by SDS-PAGE and probed with anti-PARP, anti-caspase-7 and anti-caspase-8. Migrations indicated are: full-length PARP p113, cleaved PARP p89, full-length caspase-7 and full-length caspase-8. (B) MTT, ATP and GSH assays were evaluated in duplicate samples. Data are expressed as percent (%) of untreated cells and are the means of 3 independent experiments (***, p < 0.0001, NS, not significant).

[2] = system: MCF7/FasR and MCF7/FasR/Bcl-xL cells; experiment: ATP quantification (CellTiter-Glo); details: increasing concentration, 458 nm irradiation, 72 h
Description: as §1, §2

[3] = system: PARP, caspase-7 and caspase-8 processing; experiment: Western blot of apoptotic biomarkers; details: 458 nm irradiation, 72 h
Text: Its effects on apoptotic biochemical markers by Western blotting analysis in MCF7/FasR cells and its Bcl-xL-overexpressed counterpart in comparison with the apoptotic inducer TNFα were examined (Figure 13). Cleavage-mediated inactivation of DNA repair enzyme poly(ADP-ribose) polymerase (PARP) by executioner caspases (e.g., caspase-3, caspase-7) has been considered as a marker of apoptotic cell death. The treatment with TNFα was associated with the proteolytic cleavage of PARP (decreased in 113 kDa full-length, increased in apoptotic 89 kDa fragment) in MCF7/FasR cells (Figure 13A). Since the MCF7 cell line lacks caspase-3 due to the functional deletion of the CASP-3 gene, caspase-7 is the only executioner caspase in these cells, as evidenced by the decreased content in the 35 kDa full-length pro-caspase-7 observed upon TNFα treatment (Figure 13A). The upstream caspase-8 that can directly process caspase-7 (extrinsic pathway) was also activated (loss of 55 kDa full-length pro-caspase-8). […] Importantly, the overexpression of Bcl-xL had no effect on apoptotic markers, regardless of the concentration of complex 4a used, implying that a MOMP-dependent mechanism is unlikely to be involved. In parallel experiments, cell viability and quantification of ATP and GSH levels were assessed. […] The early transient elevation of cytosolic ATP level is a necessary condition for the apoptotic cell death process, followed by a drop that correlates with the time course of cell death. […]
We next evaluated the effect of the pan-caspase inhibitor z-VAD-fmk on caspase signaling. […]
Cell lysate preparation and Western blotting were carried out as previously described. […] Proteins were visualized by ECL (Clarity Western ECL Substrate, Bio-Rad, Marnes-la-Coquette, France) using anti-rabbit or anti-mouse HRP-conjugated IgG (Bio-Rad); analysis of Western blots was assessed with a ChemiDoc imaging system (Bio-Rad).
Figure 13 Evaluation of apoptotic biomarkers. […] (B) MTT, ATP and GSH assays were evaluated in duplicate samples. […]

SMILES: CC(C)[n+]1ccn2[c]1[Ir-3]13([c]4ccccc4-c4cccc[n+]41)([c]1ccccc1-c1cccc[n+]13)[c]1n(cc[n+]1C(C)C)C2.F[P-](F)(F)(F)(F)F [Complex 4a]
- level of reduced GSH [1]: decreased
- ATP level [2]: loss of ATP
- processing of PARP, caspase-7 and caspase-8 at GI50 concentration ([3]; 50 nM, MCF7/FasR and MCF7/FasR/Bcl-xL): no processing of PARP, caspase-7 and caspase-8 were observed
- processing of PARP, caspase-7 and caspase-8 at high concentration ([3]; 250 nM and 1 µM, MCF7/FasR): cleavage of PARP and processing of caspase-7 and caspase-8
- procaspase-7 expression and PARP activation ([3]; 500 nM, MCF7/FasR): significant loss of procaspase-7 expression
